Article PMC6078987, “Molecular insights into antibiotic resistance - how a binding protein traps albicidin” (Nature Communications, 2018)
Values joined by “and” are separate entries in the source; they are usually repeats but may differ in a detail not shown here. Identical values can stand only once. “Also recorded” adds a separate entry of the source.

Tests used:
AlbAS [1] = molecular target: T1, AlbAS (Klebsiella oxytoca, UniProt Q8KRS7); test: Fluorescence quenching binding assay (tryptophan fluorescence) with AlbAS; settings: for Kd: AlbAS 20 nM, fluorescence quenching, pH 6.8
T1 sequence (Q8KRS7 1-221): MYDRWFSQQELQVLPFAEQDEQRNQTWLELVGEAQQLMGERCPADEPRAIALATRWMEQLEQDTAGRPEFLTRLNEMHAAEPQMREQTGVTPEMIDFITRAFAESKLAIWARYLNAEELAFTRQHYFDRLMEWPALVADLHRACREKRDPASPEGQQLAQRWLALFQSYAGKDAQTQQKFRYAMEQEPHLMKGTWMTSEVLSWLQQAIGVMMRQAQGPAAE
Procedure: Fluorescence quenching measurements were performed by monitoring tryptophan fluorescence of AlbAS (20 nM), AlbAL (20 nM), AlbASNTD, and AlbASCTD (100 nM) on a FluoroMax 2 spectrometer from Horiba (Potsdam, Germany). The excitation wavelength was set to λexc = 280 nm. Emission spectra were recorded from λem = 290–450 nm with a scanning speed of 1 nm s^−1 and an integration time of 1 s. The excitation and emission slit widths were set to 8 and 4 nm, respectively. Proteins were solved in 50 mM sodium phosphate buffer with 150 mM NaCl and 0.01% DMSO at pH 6.8. All measurements were performed twice and the standard deviation is given for the Kd and the Hill factor n. Data evaluation was performed by integration of the emission band (318–410 nm for AlbAS, 316–412 nm for AlbAL, and 319–390 nm for AlbASNTD and AlbASCTD) for every titration step. The area under the curve (AUC) of the buffer blank (buffer with 0.01% DMSO) was subtracted from the measured titration data. The quenching factor was determined by subtraction of AUCs for each titration step from the AUC of the protein in the absence of ligand. For determination of the AlbAS– and AlbAL–albicidin Kd values, the data were fitted to Eq. (2).2 Y=Bmax[L]^n/Kdn+[L]^n where [L], n, and Bmax denote the total ligand concentration, the Hill coefficient, and the maximum binding capacity of the protein, respectively.
For the determination of the Kd for AlbAS–compound 7 the data were fitted to Eq. (3).3 Y=Pt+L+Kd-Pt+L+Kd^2-4PtL/2 where Pt is the total protein concentration.

AlbAS [2] = molecular target: T1, AlbAS; test: 1H-15N HSQC NMR binding assay; settings: 15N-labeled AlbAS, 1.5-fold excess of ligand
Procedure: For binding studies with albicidin and its derivatives, each ligand was dissolved in 100% d6-DMSO and added to ^15N-labeled AlbAS or ^2H, ^15N-labeled AlbAL in 50 mM sodium hydrogen phosphate (pH 6.8), 150 mM NaCl buffer (usually 0.24 mM AlbAS or AlbAL in 85% buffer, 5% d6-DMSO, and 10% D2O) yielding a 1.5-fold excess of the ligand. After incubation for 20 min at room temperature in the dark, the sample was centrifuged at 20 000 × g for 3 min and the supernatant was transferred to a 5 mm NMR tube. The AlbAS blank sample (Supplementary Figure 14) was measured in 100% buffer without addition of ligands and DMSO. Spectra were recorded on a Bruker Avance III 700 MHz NMR spectrometer (Bruker BioSpin, Rheinstetten, Germany) with a TXI probe head. Standard Bruker pulse sequences were used. 2D ^1H-^15N HSQC spectra were recorded at 298 K with acquisition times of 90 and 22 ms for the ^1H and ^15N dimension, respectively. The experiments were accumulated with ≥16 scans depending on protein sample concentration. 2D ^1H-^15N TROSY spectra were accumulated with 256 scans and acquisition times of 90 and 22 ms for the ^1H and ^15N dimension, respectively. Several AlbAS–albicidin samples were measured with the same result and a representative spectrum is given for the figures in the main manuscript and the SI. NMR experiments with AlbAS and albicidin analogs were conducted once with accumulation of ≥16 scans depending on protein concentration. For alignment of HSQC and TROSY spectra, the TROSY spectrum was corrected by 1/2 ^1JNH in both dimensions. […]

E. coli DH5α = test: Agar diffusion assay; assay type: cell-based; settings: for neutralization of antibacterial activity by AlbAS: 40 µM compound pre-incubated with 40 µM AlbAS; for antibacterial activity in agar diffusion assay: 40 µM compound, E. coli DH5α, 18 h 37 °C
Procedure: To verify the neutralizing ability of AlbAS, AlbAL, AlbASM, AlbASCTD, or AlbASNTD against different compounds, agar diffusion assays with the respective compounds were performed. An overnight culture of E. coli DH5α was diluted to an OD600 of 0.05 with 0.75% LB-agar. The protein-albicidin reaction mixture consisted of a 1:1 mixture of 40 μM albicidin (or derivatives) with 40 μM protein (either AlbAS or its variants AlbAL, AlbASM, AlbASNTD, and AlbASCTD). The mixture was incubated for 20 min at room temperature in the dark. Reaction mixtures of 30 μL were transferred in triplicates of 2 mm holes on the inoculated agar plate. The plates were evaluated concerning growth-inhibition zone after incubation for 18 h at 37 °C.

Structure (SMILES) | Kd (AlbAS [1]) | binding to AlbAS by HSQC signal pattern (in words) (AlbAS [2]) | neutralization of antibacterial activity by AlbAS (E. coli DH5α) | antibacterial activity in agar diffusion assay (E. coli DH5α) | effect on fluorescence emission of AlbAS (in words) (AlbAS [1]; AlbAS 20 nM titrated with compound)
COC(C(N)=O)C(NC(=O)c1ccc(NC(=O)c2ccc([N+](=O)[O-])cc2)cc1)C(=O)Nc1ccc(C(=O)Nc2ccc(C(=O)Nc3ccc(C(=O)O)cc3OC(C)C)cc2OC(C)C)cc1 (centres unmarked) [compound 7] | 14 ± 2.9 nM | strong binding of compound 7 in the nanomolar Kd range | able to neutralize the antibacterial effects of compound 7, albeit with decreased efficiency | – | –
COc1c(NC(=O)c2ccc(NC(=O)c3ccc(NC(=O)[C@@H](NC(=O)c4ccc(NC(=O)c5ccc(O)cc5)cc4)[C@@H](C)O)cc3)c(OC)c2O)ccc(C(=O)O)c1O [compound 2] | – | characteristic HSQC signal pattern as in the case of albicidin binding; also recorded: no significant effect on AlbAS binding | confirmed binding | strongly antibacterial | –
COc1c(NC(=O)c2ccc(NC(=O)c3ccc(NC(=O)[C@@H](CC#N)NC(=O)c4ccc(NC(=O)/C(C)=C/c5ccc(O)cc5)cc4)cc3)c(OC)c2O)ccc(C(=O)O)c1O [compound 3] | – | still able to bind; also recorded: binding mode equivalent to that of albicidin | prohibit its antibacterial effects; also recorded: neutralizing effect | – | –
C/C(=C\c1ccc(O)cc1)C(=O)Nc1ccc(C(=O)O)cc1 [compound 4] | – | weak binding | – | did not display antibacterial activity | did not lead to significant quenching; also recorded: no consistent effect on fluorescence emission spectra
COc1c(NC(=O)c2ccc(NC(=O)c3ccc(N)cc3)c(OC)c2O)ccc(C(=O)O)c1O [compound 5] | ~55.5 nM and 55.5 nM | slow-exchange regime (strong binding) | – | did not display antibacterial activity | –
COc1c(NC(=O)c2ccc(NC(=O)c3ccc(NC(=O)[C@H](CC#N)NC(=O)c4ccc(NC(=O)/C(C)=C/c5ccc(F)cc5)cc4)cc3)c(OC)c2O)ccc(C(=O)O)c1O [compound 1] | – | – | abolished the antibacterial activity | – | –
COc1c(NC(=O)c2ccc(NC(=O)[C@H](CC#N)NC(=O)c3ccc(N)cc3)cc2)ccc(C(=O)O)c1O [compound 6] | – | slow-exchange regime (strong binding) | – | did not display antibacterial activity | –
